Test results: publication PMC6651196, “Preclinical Evaluation of Radiolabeled Peptides for PET Imaging of Glioblastoma Multiforme” (Molecules, 2019)
Entries after “also recorded” stand apart in the source; their conditions may differ. Read-outs that look alike come from different tables or passages of the source.

Experiments:
[1] = system: U-87 MG tumor xenografts; experiment: µPET/CT imaging
Protocol: (§1) SCID female mice (Harlan, Indianapolis, IN, USA) at 6–8 weeks of age were subcutaneously injected into the right flank with 5 × 10^6 U-87 MG cells mixed with Matrigel Matrix (Corning, Corning, NY, USA) at a 1:1 ratio. The tumor growth was continuously monitored by caliperation. When the tumor volume reached 100–300 mm^3 (i.e., 6–8 weeks after inoculation of cells), the mice were used for ex vivo biodistribution studies or µPET/CT imaging. The experimental animals were housed in a specific-pathogen-free animal facility. […] The number of animals was reduced as much as possible (n = 3 per group and time point) for all in vivo experiments. The tracer injection and small animal imaging were carried out under 2% isoflurane anesthesia (FORANE, Abbott Laboratories, Abbott Park, IL, USA) to minimize animal suffering and to prevent animal motion.
(§2) Experimental animals were imaged using microPET/SPECT/CT system Albira (Bruker, Billerica, Massachusetts, USA). Mice were r.o. injected with the radiolabeled tracer at a dose of 5–10 MBq (corresponding to 1–2 μg of peptide for animals injected with ^68Ga-peptides) per animal. Anesthetized animals were placed in a prone position in the Albira system before the start of imaging. Static PET/CT images were acquired over 30 min interval starting 30 and 90 minutes after injection. A 10-min PET scan (axial FOV 148 mm) was performed, followed by a double CT scan (axial FOV 65 mm, 45 kVp, 400 μA, at 400 projections). Scans were reconstructed with the Albira software (Bruker Biospin Corporation, Woodbridge, CT, USA) using the maximum likelihood expectation maximization (MLEM) and filtered back-projection (FBP) algorithms. The PMOD software (PMOD Technologies, Zurich, Switzerland) was used for the image analysis and tracer uptake quantification. Three-dimensional volume rendered images were created in VolView software (Kitware, Clifton Park, NY, USA). The data obtained by PET scan were quantified in PMOD via manually selected volumes of interest (VOIs) and expressed as standardized uptake values (SUV). Using SUVs for the tumor and brain regions the tumor to brain ratios were calculated.

[2] = Ex vivo biodistribution; details: mouse; for tissue to tissue ratio at 0.5 h / tissue to tissue ratio at 1.5 h: female, SCID, total radioactivity, from ex vivo biodistribution; for tissue to tissue ratio at 1.5 h: 90 min p.i.
Protocol: (§3) SCID female mice (Harlan, Indianapolis, IN, USA) at 6–8 weeks of age were subcutaneously injected into the right flank with 5 × 10^6 U-87 MG cells mixed with Matrigel Matrix (Corning, Corning, NY, USA) at a 1:1 ratio. The tumor growth was continuously monitored by caliperation. When the tumor volume reached 100–300 mm^3 (i.e., 6–8 weeks after inoculation of cells), the mice were used for ex vivo biodistribution studies or µPET/CT imaging. […] The number of animals was reduced as much as possible (n = 3 per group and time point) for all in vivo experiments. The tracer injection and small animal imaging were carried out under 2% isoflurane anesthesia (FORANE, Abbott Laboratories, Abbott Park, IL, USA) to minimize animal suffering and to prevent animal motion.
(§4) For ex vivo biodistribution studies, radiolabeled tracers were diluted with saline. The prepared solutions were applied retro-orbitally (r.o.) to the mice [35] at a dose of 1–2 MBq per mouse corresponding to 0.2–0.4 µg of the peptide. The mice were sacrificed by cervical dislocation 30 min and 90 min post-injection and organs of interest (blood, spleen, pancreas, stomach, intestine, kidneys, liver, heart, lungs, muscle, bone, and tumor) were collected. The samples were weighed and the radioactivity was measured by an automatic gamma counter. The accumulation of radiotracer in studied organs was expressed as a percentage of injected dose per gram of organ.

[3] = Stability in the presence of competing metal (FeCl3), HPLC radiochemical purity; details: 37 °C
Protocol: 50 μL of ^68Ga-labeled peptides were mixed with 150 μL of 0.1 mM FeCl3 (Sigma Aldrich, St. Louis, MO, USA). The mixture was incubated at 37 °C and the samples for HPLC analysis to determine the radiochemical purity were taken at selected time points (30, 60 and 120 min) and directly injected on HPLC.

[4] = Plasma protein binding, size-exclusion spin column; details: human plasma, 37 °C
Protocol: (§5) 10 µL of the labeled peptide was mixed with 190 μL of human plasma (Sigma Aldrich, St. Louis, MO, USA), and incubated at 37 °C. Twenty-five µL of sample were collected at 30, 60, and 120 min time intervals for the determination of protein binding. The samples were separated by size-exclusion chromatography (illustra MicroSpin G-50 Column, GE Healthcare, UK) by centrifugation (2000 × g, 1 min). The eluate (protein-bound) and appropriate column (non-protein-bound) were measured on an automatic gamma counter. The percentage of plasma protein binding (PPB) was calculated as the ratio of the activity in the eluate and the activity of the whole sample (column plus the eluate). The blank determination of protein binding, i.e., incubation of the radiotracer in PBS buffer followed by separation of the sample on gel column was performed as the control step.

[5] = µPET/CT imaging; details: female, SCID, mouse, tumor and brain (PET volumes of interest), total radioactivity
Protocol: as §1, §2

[6] = system: U-87 MG cells; experiment: Cell uptake assay with and without excess of cold peptide; format: cell-based, human; details: for Accumulation in U-87 MG cells: 90 min, 37 °C
Protocol: Human glioblastoma multiforme U-87 MG cells (ATCC, Manassas, VA, USA) were cultured in Dulbecco’s Modified Eagle Medium (Sigma Aldrich, St. Louis, MO, USA) supplemented with 10% fetal bovine serum, 0.1 mM non-essential amino acids and 1.0 mM sodium pyruvate at 37 °C in a 5% carbon dioxide humidified incubator. The cells were subcultured and used for experiments at a confluency of 70–90%.
Cell uptake assay was performed in 24-well plates with U-87 MG cell at high confluency. The assay itself was carried out using a dedicated buffer instead of the regular cell culture media. The buffer consists of 25 mM Tris/HCl, 5.4 mM KCl, 1.8 mM CaCl2, 0.8 mM MgSO4, 5 mM glucose, 140 mM NaCl in H2O [34].
The cells were incubated with ^68Ga-labeled RGD peptides (20 µM) alone and also with excess (2 mM) of cold RGD peptide for 90 min (37 °C) in the buffer described above. The cells were rinsed with PBS, lysed in 0.1 M NaOH and measured for radioactivity in a gamma counter (PerkinElmer, Waltham, Massachusetts, USA). The uptake was calculated as the mean of the percentage of the applied dose ± standard deviation.

[7] = Partition coefficient (log P), octanol/PBS
Protocol: Labeled peptide was diluted with 600 μL of phosphate-buffered saline (PBS), and 50 µL of the solution was mixed in the test tube with 450 μL of PBS and 500 μL of octanol. The sample was placed on the shaker (1000 RPM) for 20 min and then centrifuged at 15,000 RPM for 1 min. Subsequently, 50 µL from both octanol and water layer were collected and measured on an automatic gamma counter (PerkinElmer, Waltham, Massachusetts, USA). Partition coefficient was calculated as the decadic logarithm of the ratio of octanol/water activity.

[8] = Stability in the presence of competing chelator (DTPA), HPLC radiochemical purity; details: 37 °C
Protocol: 50 μL of ^68Ga-labeled peptides were mixed with 150 μL of 6 mM DTPA solution (Sigma Aldrich, St. Louis, MO, USA). The mixture was then incubated at 37 °C and the samples were processed for HPLC analysis to determine the radiochemical purity were taken at selected time points (30, 60, and 120 min) and directly injected on HPLC.

[9] = Stability in physiological pH (pH 7), HPLC radiochemical purity; details: 37 °C
Protocol: The peptides were labeled as described above. Subsequently, 100 μL of 1.14 M sodium acetate was added to adjust the pH to 7.0. The mixture was incubated at 37 °C and the samples for HPLC analysis to determine the radiochemical purity were taken at selected time points (30, 60, and 120 min) and directly injected on HPLC.

[10] = Plasma stability, HPLC radiochemical purity; details: human
Protocol: (§6) 100 μL of the labeled peptide was mixed with 400 μL of human plasma (Sigma Aldrich, St. Louis, MO, USA). This mixture was incubated at 37 °C and the samples for HPLC analysis to determine the radiochemical purity were taken at selected time points (30, 60, and 120 min). The individual samples were adjusted before the injection on HPLC—every sample was mixed with acetonitrile (Roth, Karlsruhe, Germany) and placed on the shaker (450 rpm) for 60 s and then centrifuged (20,000 RCF, 3 min), followed by removing the supernatant. Finally, the supernatant was analyzed using HPLC.

[11] = in vivo; details: female, SCID, mouse, total radioactivity
Protocol: as §3, §4

[12] = in vitro; details: human, plasma
Protocol: as §6

[13] = in vivo; details: female, SCID, mouse, total radioactivity; remark: listed apart in the source
Protocol: as §1, §2

[14] = human, plasma
Protocol: as §5

[15] = mouse, in vivo
Protocol: as §3, §4

[16] = system: U-87 MG tumor SCID mouse; details: in vivo
Protocol: as §3, §4

[17] = system: U-87 MG tumor SCID mouse; experiment: Ex vivo biodistribution; details: 90 min p.i., from ex vivo biodistribution
Protocol: as §3, §4

[18] = tumor and blood, Tumor to blood ratio, 30 min p.i.
[19] = tumor and blood, Tumor to blood ratio
[20] = tumor and kidney, Tumor to kidney ratio, 30 min p.i.
[21] = tumor and kidney, Tumor to kidney ratio
[22] = tumor and muscle, Tumor to muscle ratio, 30 min p.i.
[23] = tumor and muscle, Tumor to muscle ratio

| Structure (SMILES) | tissue to tissue ratio at 0.5 h [2, 18] | tissue to tissue ratio at 1.5 h [2, 19] | tissue to tissue ratio at 0.5 h [2, 20] | tissue to tissue ratio at 1.5 h [2, 21] | tissue to tissue ratio at 0.5 h [2, 22] | tissue to tissue ratio at 1.5 h [2, 23] | % Stability in 0.1 M FeCl3 ([3]; 30 min) [%] | % Stability in 0.1 M FeCl3 ([3]; 60 min) [%] | % Stability in 0.1 M FeCl3 ([3]; 120 min) [%] | Plasma Protein Binding (%) ([4]; incubation 30 min) | Plasma Protein Binding (%) ([4]; incubation 60 min) | Plasma Protein Binding (%) ([4]; incubation 120 min) | tissue to tissue ratio at 1.5 h [5] | logP [7] | % Stability in 6 mM DTPA ([8]; 60 min) [%] | % Stability in 6 mM DTPA ([8]; 120 min) [%] | % Stability in pH 7 ([9]; 30 min) [%] | % Stability in pH 7 ([9]; 60 min) [%] | % Stability in pH 7 ([9]; 120 min) [%] | Accumulation in U-87 MG cells ([6]; normal cells, 20 µM) | also measured |
| --- | --- | --- | --- | --- | --- | --- | --- | --- | --- | --- | --- | --- | --- | --- | --- | --- | --- | --- | --- | --- | --- |
| OC[C@H]1OC(O)[C@H](F)[C@@H](O)[C@@H]1O (stereo partly drawn) [^18F-FDG, ^18F-fluorodeoxyglucose, reference compound] |  |  |  |  |  |  |  |  |  |  |  |  |  |  |  |  |  |  |  |  | PET/CT visualization of the tumor ([1]; mouse, in vivo): allowed clear imaging of the tumor |
| Cc1cn([C@H]2C[C@H]([18F])[C@@H](CO)O2)c(=O)[nH]c1=O [^18F-FLT, ^18F-fluorothymidine, reference compound] |  |  |  |  |  |  |  |  |  |  |  |  |  |  |  |  |  |  |  |  | PET/CT visualization of the tumor ([1]; 30 and 90 min p.i.): could also be imaged |
| CSCC[C@H](NC(=O)[C@H](CC(C)C)NC(=O)CNC(=O)[C@H](Cc1ccccc1)NC(=O)[C@H](Cc1ccccc1)NC(=O)[C@H](CCC(N)=O)NC(=O)[C@H](CCC(N)=O)NC(=O)[C@@H]1CCCN1C(=O)[C@H](CCCCN)NC(=O)[C@@H]1CCCN1C(=O)[C@H](CCCNC(=N)N)NC(=O)CN1CCN(CC(=O)O)CCN(CC(=O)O)CCN(CC(=O)O)CC1)C(N)=O [^68Ga-DOTA-substance P, DOTA-substance P, metal not drawn] |  |  |  |  |  |  |  |  |  |  |  |  |  |  |  |  |  |  |  | 0.3 % of the applied dose | tissue to tissue ratio at 0.5 h ([11]; Tumor to blood ratio): 0.93; tissue to tissue ratio at 1.5 h ([11]; Tumor to blood ratio): 2.84; tissue to tissue ratio at 0.5 h ([11]; Tumor to kidney ratio): 0.14; tissue to tissue ratio at 1.5 h ([11]; Tumor to kidney ratio): 0.04; tissue to tissue ratio at 0.5 h ([11]; Tumor to muscle ratio): 3.1; tissue to tissue ratio at 1.5 h ([11]; Tumor to muscle ratio): 6.45; remaining at 0.5 h [12]: 98.2%; remaining at 1 h [12]: 98.2%; remaining at 2 h [12]: 98%; tissue to tissue ratio at 1.5 h [13]: 4.25; logP: -3.03 ± 0.33; fraction unbound [14]: ~0.71; PET/CT visualization of the tumor ([1]; 30 and 90 min p.i., listed as 68Ga-substance P): did not visualize the tumor; also recorded: did not observe any substantial signal in tumors; Accumulation in U-87 MG cells ([6]; blocked with excess (2 mM) of cold peptide): 0.3 % of the applied dose; Uptake in U-87 cells compared to ^68Ga-NODAGA-c(RGDyK)2 ([6]; normal cells): about 50%; tissue uptake at 1.5 h ([15]; Accumulation in kidneys): 15 to 17 %ID/g; tissue uptake at 0.5 h ([15]; Tumor uptake): 2.14 %ID/g; Tumor to blood ratio [16]: 2.8; Accumulation in kidneys ([16]; 1.5 h): 15 % ID/g |

Continued, in another order:

| tissue to tissue ratio at 0.5 h [2, 18] | tissue to tissue ratio at 1.5 h [2, 19] | tissue to tissue ratio at 0.5 h [2, 20] | tissue to tissue ratio at 1.5 h [2, 21] | tissue to tissue ratio at 0.5 h [2, 22] | tissue to tissue ratio at 1.5 h [2, 23] | % Stability in 0.1 M FeCl3 ([3]; 30 min) [%] | % Stability in 0.1 M FeCl3 ([3]; 60 min) [%] | % Stability in 0.1 M FeCl3 ([3]; 120 min) [%] | Plasma Protein Binding (%) ([4]; incubation 30 min) | Plasma Protein Binding (%) ([4]; incubation 60 min) | Plasma Protein Binding (%) ([4]; incubation 120 min) | tissue to tissue ratio at 1.5 h [5] | logP [7] | % Stability in 6 mM DTPA ([8]; 60 min) [%] | % Stability in 6 mM DTPA ([8]; 120 min) [%] | % Stability in pH 7 ([9]; 30 min) [%] | % Stability in pH 7 ([9]; 60 min) [%] | % Stability in pH 7 ([9]; 120 min) [%] | Structure (SMILES) | Accumulation in U-87 MG cells ([6]; normal cells, 20 µM) | also measured |
| --- | --- | --- | --- | --- | --- | --- | --- | --- | --- | --- | --- | --- | --- | --- | --- | --- | --- | --- | --- | --- | --- |
| 1.09 | 14.7 | 0.29 | 1.43 | 2.42 | 13.5 | 97.04 ± 1.24 | 96.76 ± 1.21 | 95.83 ± 1.04 | 2.39 | 2.65 | 3.29 | 4.7 | -3.43 ± 0.11 | 99.39 ± 0.54 | 99.06 ± 0.57 | 99.60 ± 0.23 | 99.51 ± 0.13 | 99.49 ± 0.20 | N=C(N)NCCC[C@@H]1NC(=O)[C@H](CCCCNC(=O)CN2CCN(CC(=O)O)CCN(CC(=O)O)CCN(CC(=O)O)CC2)NC(=O)[C@@H](Cc2ccccc2)NC(=O)[C@H](CC(=O)O)NC(=O)CNC1=O [^68Ga-DOTA-c(RGDfK), DOTA-c(RGDfK), metal not drawn] | lowest | Uptake in U-87 cells compared to ^68Ga-NODAGA-c(RGDyK)2 ([6]; normal cells): about 50%; % Stability in 6 mM DTPA ([8]; 30 min): 99.39 ± 0.43%; remaining at 0.5 h [10]: 99.23 ± 0.18%; remaining at 1 h [10]: 99.14 ± 0.19%; remaining at 2 h [10]: 98.81 ± 0.33% |
| 2.3 | 16.4 | 0.61 | 0.91 | 5.84 | 10.5 | 98.66 ± 0.82 | 99.22 ± 0.19 | 99.17 ± 0.18 | 1.74 | 1.89 | 3.40 | 4.14 | -3.34 ± 0.13 | 99.39 ± 0.54 | 99.06 ± 0.57 | 99.83 ± 0.11 | 99.74 ± 0.18 | 99.62 ± 0.21 | N=C(N)NCCC[C@@H]1NC(=O)[C@H](CCCCNC(=O)CC[C@H](NC(=O)CCC(C(=O)O)N2CCN(CC(=O)O)CCN(CC(=O)O)CC2)C(=O)NCCCC[C@@H]2NC(=O)[C@@H](Cc3ccc(O)cc3)NC(=O)[C@H](CC(=O)O)NC(=O)CNC(=O)[C@H](CCCNC(=N)N)NC2=O)NC(=O)[C@@H](Cc2ccc(O)cc2)NC(=O)[C@H](CC(=O)O)NC(=O)CNC1=O (stereo partly drawn) [^68Ga-NODAGA-c(RGDyK)2, NODAGA-c(RGDyK)2, metal not drawn] | highest accumulation; also recorded: highest binding | tissue uptake at 0.5 h ([2]; tumor, Tumor uptake, 30 min p.i.): 6 %ID/g; PET/CT visualization of the tumor ([1]; 30 and 90 min p.i.): highest accumulation of radioactivity; also recorded: best tumor images; remaining at 0.5 h [10]: 99.51 ± 0.17%; remaining at 1 h [10]: 99.31 ± 0.11%; remaining at 2 h [10]: 99.02 ± 0.33% |
| 1.9 | 23.1 | 0.36 | 0.9 | 3.23 | 6.51 | 99.24 ± 0.44 | 98.56 ± 0.60 | 98.94 ± 0.42 | 2.74 | 1.31 | 3.21 | 4 | -3.05 ± 0.62 | 99.20 ± 0.37 | 99.23 ± 0.32 | 99.82 ± 0.05 | 99.78 ± 0.12 | 99.72 ± 0.22 | N=C(N)NCCC[C@@H]1NC(=O)[C@H](CCCCNC(=O)CCC(C(=O)O)N2CCN(CC(=O)O)CCN(CC(=O)O)CC2)NC(=O)[C@@H](Cc2ccc(O)cc2)NC(=O)[C@H](CC(=O)O)NC(=O)CNC1=O (stereo partly drawn) [^68Ga-NODAGA-c(RGDyK), NODAGA-c(RGDyK), metal not drawn] |  | Tumor to blood ratio [17]: 23.1; % Stability in 6 mM DTPA ([8]; 30 min): 99.65 ± 0.07%; remaining at 0.5 h [10]: 99.23 ± 0.18%; remaining at 1 h [10]: 99.14 ± 0.19%; remaining at 2 h [10]: 98.81 ± 0.33% |
